Experimental data as given in publication PMC10010313, “A Phase I Study of Pelabresib (CPI-0610), a Small-Molecule Inhibitor of BET Proteins, in Patients with Relapsed or Refractory Lymphoma” (Cancer Research Communications, 2022).
Values joined by “and” are separate entries in the source; they are usually repeats but may differ in a detail not shown here. Equal values may be shown once. Read-outs that look alike come from different tables or passages of the source.

Assays:
[1] = tested on: patients with relapsed or refractory lymphoma; experiment: Treatment-emergent adverse events, phase 1 study 0610–01; format: in vivo
From the text: Study 0610–01 was a first-in-human phase 1, multi-center, open-label, dose-escalation study of pelabresib (CPI-0610) in patients with relapsed or refractory lymphoma (NCT01949883).
Eligible patients for treatment with pelabresib were adults with relapsed non-Hodgkin or Hodgkin lymphoma after at least one prior therapy or who were not eligible for high-dose chemotherapy and autologous stem cell transplantation or had refused high-dose chemotherapy and autologous stem cell transplantation. Patients were required to have platelet count ≥75 × 10^9/L, absolute neutrophil count ≥1.0 × 10^9/L, and Eastern Cooperative Oncology Group performance status of 2 or less.
(§1) Pelabresib was administered once daily (QD) for 14 days followed by a 7-day break, in continuous 21-day cycles to prevent/ameliorate thrombocytopenia. Cohorts of 3 to 6 patients were sequentially enrolled with increasing doses of pelabresib (6, 12, 24, 48, 80, 120, 170, 230, and 300 mg with the capsule formulation and 125 mg and 225 mg with the micronized tablet formulation) until the MTD was determined. Pelabresib was administered under fasting conditions (no food intake 2 hours before until 1 hour after study drug administration).
(§2) The primary objective of the study was to determine the MTD of pelabresib with characterization of dose-limiting toxicities (DLT) as a primary endpoint. Secondary objectives included adverse events (AE) and serious adverse events (SAE); tumor response according to 2007 Revised Response Criteria for Malignant Lymphoma ([13]); plasma concentration of pelabresib; PK parameters; changes in expression of MYC and other genes sensitive to BET inhibition; and changes in levels of selected mRNAs that are expressed in PBMCs and are sensitive to BET inhibition.
(§3) The MTD of pelabresib was defined as the highest dose that could be given without causing DLT in 33% or more of the patients treated at that dose (capsules or tablets). Dose-escalation followed a traditional “3 + 3” design based on the frequency of DLT. All patients who were treated with at least 1 dose of pelabresib were included in the Safety Population and used for all tabulations of demographic information, baseline characteristics, safety, PK, pharmacodynamic, and efficacy analyses.

[2] = tested on: NF-κB signaling; conditions: preclinical studies; cited from earlier work
[3] = tested on: IL8; experiment: IL8 mRNA expression in patient whole blood (qPCR); format: in vivo, human
From the text: (§4) Whole (peripheral) blood samples were also collected at selected time points that coincided with PK sampling. Blood from patients was drawn into PAXgene blood RNA tubes (Becton Dickinson) at the clinical sites and shipped frozen to the Massachusetts General Hospital (MGH, Boston, MA) for processing. RNA was purified using a PAXgene Blood RNA Kit IVD (Qiagen) according to the manufacturer's protocol and quantitated using a Nanodrop 8000 (Thermo Scientific). RNA isolated from PBMCs was used to synthesize cDNA for qPCR analysis and gene expression was assessed by qPCR using a CCR1 or IL8 TaqMan assay. Housekeeping genes were assessed using B2M TaqMan assay, PPIB Universal Probe Library (UPL) or TaqMan assay. Relative gene expression for CCR1 and IL8 was determined after normalization to the geometric mean of the two housekeeping genes (B2M and PPIB).

[4] = tested on: platelet count; experiment: Platelet count values versus pelabresib dose; format: in vivo, human; conditions: QD 14 days on, 7 days off
From the text: To accommodate for different baseline platelet count values in different patients, changes in platelet count values were expressed as a fraction or ratio of the baseline value. There was a strong correlation between the Day 14:Day 1 platelet count ratio and pelabresib dose (R^2 = 0.81).

[5] = tested on: relapsed or refractory lymphoma; experiment: Tumor response, 2007 Revised Response Criteria for Malignant Lymphoma; format: in vivo, human
From the text: as §2, §3

[6] = tested on: MYC; design: method as in PMID 21949397; conditions: cited from earlier work
[7] = crystalline form of pelabresib; cited from earlier work
[8] = Plasma pharmacokinetics (LC-MS/MS, noncompartmental)
Method: (§5) To characterize the plasma PK of pelabresib for the first dose and at steady state for multiple dosing, blood samples were taken before and at 0.5, 1, 1.5, 2, 3, 4, 6, 8, and 24 hours after the initial dose; before dosing on Day 8; before and at 0.5, 1, 1.5, 2, 3, 4, 6, 8, 24, 48, 72, 96, and 120 hours after the Day 14 dose; and prior to dosing on Day 1 of Cycle 2. Blood samples were centrifuged within 30 minutes of collection to harvest the plasma which was promptly stored in cryovials maintained at −80°C. The concentration of CPI-0610 in plasma samples was determined by reverse-phase high performance liquid chromatography with tandem mass spectrometric detection. The assay was validated and applied to the analysis of study samples according to the recommendations in the current FDA guidance. At the lowest concentration included in the calibration curves, which was 0.25 ng/mL, interday accuracy was within 0.3% of the nominal concentration and the precision was 3.0%. Interday accuracy ranged from 99.9 to 101.2% and the precision ranged from 4.0 to 6.0% for all other calibration standards. Actual time points were calculated as the difference between the blood sample collection time and the time that the drug was taken. The plasma concentration–time data were analyzed by noncompartmental methods using WinNonlin version 5.0.1 (Pharsight Corp). Area under the plasma concentration–time curve from the time of dosing to the time of last sample collected prior to administration of the next dose (AUC0–24) was estimated using the linear-log trapezoidal method. Apparent oral clearance (CL/F) was calculated as the dose divided by the AUC0–24 for the dose given on Day 14. Pharmacokinetic parameters are reported as the geometric mean [geometric coefficient of variation (CV%)] of the values for individual patients at each dose level unless otherwise indicated.

[9] = human, in vivo
Method: as §5

[10] = tested on: CCR1; experiment: CCR1 mRNA expression in patient whole blood (qPCR); format: in vivo, human
From the text: as §4

[11] = clinical; conditions: human, in vivo
Method: as §5

[12] = tested on: IL8 and CCR1 gene expression; experiment: PK/PD analysis of maximum gene suppression versus exposure (Emax model); format: in vivo, human
Method: To further explore the relationship between pelabresib exposure and suppression of gene expression, individual maximum gene suppression (the nadir of individual gene expression versus time profiles) was plotted as a continuous function of individual Cmax and AUC for both CCR1 and IL8. […] In total, based on this analysis, pharmacodynamic responses of at least 50% suppression in gene expression are evident at AUC and Cmax as low as 4,000 ng/hr/mL and 500 ng/mL, respectively. These exposures were achieved on average at capsule doses of 80 mg and above and were exceeded at both tablet doses.

[13] = tested on: ABC- diffuse large B-cell lymphoma (DLBCL) and Burkitt lymphoma (BL) cell lines; conditions: preclinical studies; cited from earlier work
[14] = tested on: patients with relapsed or refractory lymphoma; experiment: Dose-limiting toxicities / MTD determination (3 + 3 dose escalation); format: in vivo
Method: as §1, §2, §3

[15] = design: method as in PMID 21949397; conditions: cited from earlier work
[16] = including both tablet dose levels
[17] = whole blood, 2, 6 and 8 hours after administration
[18] = individual maximum gene suppression, inhibitory Emax model

## Cc1noc2c1-c1ccccc1C(c1ccc(Cl)cc1)=N[C@H]2CC(N)=O [pelabresib]
[1]; cause disease progression, none considered related to the investigational product
  Patients who died while on study: 9 (14.1%) patients (%)
[1]; grade 5
  SAE disease progression: 7 patients
[1]; human, in vivo
  Anemia of Grade 3 or higher: 7 (10.9%) patients (%)
  Diarrhea of Grade 3 or higher: 4 (6.3%) patients (%)
  Gastrointestinal TEAEs: 43 (67.2%) patients (%)
  Patients with at least 1 TEAE: 64 patients
  Patients with at least 1 TEAE of Grade 3 or higher intensity: 44 (68.8%) patients (%)
  SAE diarrhea: 4 patients
  SAE disease progression: 1 patient
  SAE pain: 2 patients
  SAE pneumonia: 2 patients
  TEAE Anemia: 16 (25.0) n (%)
  TEAE Decreased appetite: 17 (26.6) n (%)
  TEAE Diarrhea: 12 (18.8) n (%)
  TEAE Dysgeusia: 10 (15.6) n (%)
  TEAE Fatigue: 23 (35.9) n (%)
  TEAE Hyperglycemia: 12 (18.8) n (%)
  TEAE Lymphopenia: 13 (20.3) n (%)
  TEAE Nausea: 18 (28.1) n (%)
  TEAE Thrombocytopenia events: 29 (45.3) n (%)
  TEAE Vomiting: 13 (20.3) n (%)
  TEAEs that led to treatment discontinuation: 9 (14.1%) patients (%)
  Thrombocytopenia events of Grade 3 or higher: 13 (20.3%) patients (%)
  Treatment-emergent SAEs: 27 (42.2%) patients (%)
[2]
  Effect on NF-κB signaling activity: downregulation
[3]; capsule
  Dose level with maximum reduction of IL8 expression: 120 mg
[3]; [16]
  Capsule doses at whose exposures suppression of IL8 was much more apparent: greater than or equal to 120 mg
[3]; whole blood
  Earliest time of decreased IL8 expression postdose: ≤ 2 h
[3]; [17]
  Capsule dose above which appreciable changes in expression of IL8 were shown: above 120 mg
[4]
  Character of decreases in platelet count values: dose dependent, reversible, and non-cumulative
[5]; 4 of 64 patients
  Overall response rate (CR + PR): 6.2%
[5]; 64 patients
  Patients with prolonged (>6 months) stable disease: 5 patients
[5]; Overall N = 64
  Best overall response CR: 2 (3.1%) n (%) and 2 (3.1) n (%)
  Best overall response PR: 2 (3.1%) n (%) and 2 (3.1) n (%)
  Best overall response SD: 21 (32.8%) n (%) and 21 (32.8) n (%)
[5]; Overall N = 64, all doses and formulations
  Overall response rate (CR + PR): 4 (6.2) n (%)
[5]; QD capsule
  Lowest dose at which complete remission was achieved: 48 mg
[5]; patients with CR or PR
  Median duration of response (CR or PR), (range): 8.4 (6.1–46.1) weeks
  Time to treatment (CR or PR): 4–18 cycles
[5]; patients with CR or PR, 21-day cycles
  Time to response (CR or PR): 2–6 cycles
[6]; single 30 mg/kg oral dose ref 11
  Time by which MYC expression had returned to its baseline value: ≤ 12 h
[6]; single 30 mg/kg oral dose, 4 hours postdosing, immunodeficient mice ref 11
  Maximum inhibition of MYC expression in tumor tissue: 75%
[6]; single 30 mg/kg oral dose, earliest postdosing time point assessed ref 11
  Time of maximum inhibition of MYC expression: 4 h
[7]
  Aqueous solubility: low
[8]; capsule formulation, 14 days of continuous QD dosing
  Accumulation, mean (±SD): 20.5 ± 7.2%
[8]; human, plasma, oral, Terminal half-life, geometric mean (geometric CV), capsule
  half-life: 11.6 h
[8]; in vivo
  Tablet dose approximately corresponding to the 120 mg capsule dose level: ~75 mg
[8]; tablet dosage form, Day 14
  Apparent oral clearance, geometric mean (geometric CV): 12.3 (27.2%) L/h
[9]
  Factor to convert tablet doses to capsule doses: 1.34
  Range of time of peak plasma concentrations: 0.9 to 7.9 h
[9]; 225 mg
  Mean AUC0–24: 20,700 ng/h/mL
[9]; 14 days
  Accumulation at most: ≤ 40%
  Accumulation, mean (±SD): 4.3 ± 1.0%
[10]; [16]
  Capsule doses at whose exposures suppression of CCR1 was much more apparent: ≥ 170 mg
[10]; whole blood
  Earliest time of decreased CCR1 expression postdose: ≤ 2 h
[10]; [17]
  Capsule dose above which appreciable changes in expression of CCR1 were shown: > 170 mg
[11]; 225 mg
  Cmax: 2.02 µg/mL
[11]; Exposure (bioavailability) of tablet greater than capsule
  bioavailability: 60%
[11]; Half-life (mean apparent terminal phase)
  half-life: ~15 h
[11]; Median time of peak plasma concentrations
  Tmax: 1.9 h
[11]; Median time to maximum plasma concentrations
  Tmax: 2 h
[11]; Range of time of peak plasma concentrations
  Tmax: 0.5 to 7.4 h
[11]; Terminal half-life, geometric mean (geometric CV)
  half-life: 15.3 h
[12]; exceeded at both tablet doses
  Capsule doses at which these exposures (AUC 4,000, Cmax 500) were achieved on average: ≥ 80 mg
[12]; [18]
  AUC at which at least 50% suppression in gene expression is evident: ≥ 4,000 ng/hr/mL
  Cmax at which at least 50% suppression in gene expression is evident: ≥ 0.5 µg/mL
[13]
  Effect on viability: loss of viability
[14]; human, in vivo, 14 days
  Recommended phase 2 dose (RP2D): 125 mg
[14]; human, in vivo, 21 days
  DLTs: gastrointestinal (GI) events: 2
  DLTs: hematologic events: 5
  DLTs: rash: 1
  Total DLT events considered for dose-escalation: 8
[14]; tablet, QD for 14 days with a 7-day break
  MTD: 225 mg
[15]
  Clearance in mice: rapid clearance
